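Compound exposure: 48 hours, 5 concentrations, 96-well plates. GI50 marks 50% less growth. Definition used: TGI = concentration required for complete inhibition of growth.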
Assays:
Assay in all cases: DTP human tumour cell line panel, 48 h
MALME-3M melanoma = tested on: MALME-3M melanoma
TK-10 renal = tested on: TK-10 renal
MDA-MB-468 breast = tested on: MDA-MB-468 breast
IGROV1 ovarian = tested on: IGROV1 ovarian
CAKI-1 renal = tested on: CAKI-1 renal
COLO 205 colon = tested on: COLO 205 colon
SK-MEL-5 melanoma = tested on: SK-MEL-5 melanoma
SNB-75 CNS = tested on: SNB-75 CNS
U251 CNS = tested on: U251 CNS
ACHN renal = tested on: ACHN renal
786-0 renal = tested on: 786-0 renal
SF-268 CNS = tested on: SF-268 CNS
LOX IMVI melanoma = tested on: LOX IMVI melanoma
HCT-15 colon = tested on: HCT-15 colon
MDA-MB-231 breast = tested on: MDA-MB-231 breast
EKVX NSCLC = tested on: EKVX NSCLC
SK-OV-3 ovarian = tested on: SK-OV-3 ovarian
OVCAR-5 ovarian = tested on: OVCAR-5 ovarian
A498 renal = tested on: A498 renal
NCI/ADR-RES ovarian = tested on: NCI/ADR-RES ovarian
HS 578T breast = tested on: HS 578T breast
OVCAR-4 ovarian = tested on: OVCAR-4 ovarian
K-562 leukemia = tested on: K-562 leukemia
SNB-19 CNS = tested on: SNB-19 CNS
HOP-62 NSCLC = tested on: HOP-62 NSCLC
SR leukemia = tested on: SR leukemia
HOP-92 NSCLC = tested on: HOP-92 NSCLC
UACC-257 melanoma = tested on: UACC-257 melanoma
SF-295 CNS = tested on: SF-295 CNS
T-47D breast = tested on: T-47D breast
OVCAR-3 ovarian = tested on: OVCAR-3 ovarian
BT-549 breast = tested on: BT-549 breast
HT29 colon = tested on: HT29 colon
SK-MEL-2 melanoma = tested on: SK-MEL-2 melanoma
SF-539 CNS = tested on: SF-539 CNS
NCI-H226 lung = tested on: NCI-H226 lung
NCI-H460 lung = tested on: NCI-H460 lung
SN12C renal = tested on: SN12C renal
NCI-H23 lung = tested on: NCI-H23 lung
MCF7 breast = tested on: MCF7 breast
HCC-2998 colon = tested on: HCC-2998 colon
UO-31 renal = tested on: UO-31 renal
A549 NSCLC = tested on: A549 NSCLC
MOLT-4 leukemia = tested on: MOLT-4 leukemia
HCT-116 colon = tested on: HCT-116 colon
PC-3 prostate = tested on: PC-3 prostate
MDA-MB-435 = tested on: MDA-MB-435
M14 melanoma = tested on: M14 melanoma
RPMI-8226 leukemia = tested on: RPMI-8226 leukemia
DU-145 prostate = tested on: DU-145 prostate
SK-MEL-28 melanoma = tested on: SK-MEL-28 melanoma
RXF 393 renal = tested on: RXF 393 renal
KM12 colon = tested on: KM12 colon
SW-620 colon = tested on: SW-620 colon
CCRF-CEM leukemia = tested on: CCRF-CEM leukemia
OVCAR-8 ovarian = tested on: OVCAR-8 ovarian
UACC-62 melanoma = tested on: UACC-62 melanoma
HL-60(TB) leukemia = tested on: HL-60(TB) leukemia
NCI-H522 lung = tested on: NCI-H522 lung

Question: Which GI50 (MALME-3M melanoma) does the source give for `COc1ccc(C(C)=C(c2ccc(OCCCN(C)C)cc2)c2ccc(OCCCN(C)C)cc2)cc1` here?
Answer: 0.558 µM

Question: And the TGI (MALME-3M melanoma)?
Answer: 1.89 µM

Question: What about the GI50 (TK-10 renal) of the same compound?
Answer: 3.38 µM

Question: What about the TGI (TK-10 renal) of the same compound?
Answer: 6.36 µM

Question: And the GI50 (MDA-MB-468 breast)?
Answer: 0.705 µM

Question: What about the TGI (MDA-MB-468 breast) of the same compound?
Answer: 3.01 µM

Question: What about the GI50 (IGROV1 ovarian) of the same compound?
Answer: 2.96 µM

Question: What about the TGI (IGROV1 ovarian) of the same compound?
Answer: 5.75 µM

Question: And the GI50 (CAKI-1 renal)?
Answer: 2.71 µM

Question: What about the TGI (CAKI-1 renal) of the same compound?
Answer: 5.35 µM

Question: And the GI50 (COLO 205 colon)?
Answer: 0.799 µM

Question: And the TGI (COLO 205 colon)?
Answer: 3.08 µM

Question: And the GI50 (SK-MEL-5 melanoma)?
Answer: 2.57 µM

Question: And the TGI (SK-MEL-5 melanoma)?
Answer: 5.2 µM

Question: And the GI50 (SNB-75 CNS)?
Answer: 2.13 µM

Question: And the TGI (SNB-75 CNS)?
Answer: 4.66 µM

Question: And the GI50 (U251 CNS)?
Answer: 2.71 µM

Question: And the TGI (U251 CNS)?
Answer: 6 µM

Question: And the GI50 (ACHN renal)?
Answer: 2.62 µM

Question: What about the TGI (ACHN renal) of the same compound?
Answer: 5.23 µM

Question: And the GI50 (786-0 renal)?
Answer: 0.491 µM

Question: And the TGI (786-0 renal)?
Answer: 1.46 µM

Question: What about the GI50 (SF-268 CNS) of the same compound?
Answer: 2.8 µM

Question: What about the TGI (SF-268 CNS) of the same compound?
Answer: 5.94 µM

Question: What about the GI50 (LOX IMVI melanoma) of the same compound?
Answer: 0.625 µM

Question: And the TGI (LOX IMVI melanoma)?
Answer: 2.08 µM

Question: And the GI50 (HCT-15 colon)?
Answer: 1.09 µM

Question: What about the TGI (HCT-15 colon) of the same compound?
Answer: 3.79 µM

Question: What about the GI50 (MDA-MB-231 breast) of the same compound?
Answer: 1.55 µM

Question: What about the TGI (MDA-MB-231 breast) of the same compound?
Answer: 4.23 µM

Question: And the GI50 (EKVX NSCLC)?
Answer: 2.98 µM

Question: And the TGI (EKVX NSCLC)?
Answer: 5.89 µM

Question: And the GI50 (SK-OV-3 ovarian)?
Answer: 3.26 µM

Question: And the TGI (SK-OV-3 ovarian)?
Answer: 6.19 µM

Question: And the GI50 (OVCAR-5 ovarian)?
Answer: 2.82 µM

Question: And the TGI (OVCAR-5 ovarian)?
Answer: 5.55 µM

Question: What about the GI50 (A498 renal) of the same compound?
Answer: 2.73 µM

Question: And the TGI (A498 renal)?
Answer: 5.51 µM

Question: What about the GI50 (NCI/ADR-RES ovarian) of the same compound?
Answer: 3.09 µM

Question: And the TGI (NCI/ADR-RES ovarian)?
Answer: 6.15 µM

Question: And the GI50 (HS 578T breast)?
Answer: 2.44 µM

Question: What about the TGI (HS 578T breast) of the same compound?
Answer: 6.22 µM

Question: And the GI50 (OVCAR-4 ovarian)?
Answer: 2.22 µM

Question: And the TGI (OVCAR-4 ovarian)?
Answer: 5.22 µM

Question: What about the GI50 (K-562 leukemia) of the same compound?
Answer: 0.621 µM

Question: What about the TGI (K-562 leukemia) of the same compound?
Answer: 5.04 µM

Question: What about the GI50 (SNB-19 CNS) of the same compound?
Answer: 3.2 µM

Question: What about the TGI (SNB-19 CNS) of the same compound?
Answer: 6.06 µM

Question: And the GI50 (HOP-62 NSCLC)?
Answer: 3.08 µM

Question: What about the TGI (HOP-62 NSCLC) of the same compound?
Answer: 6.17 µM

Question: And the GI50 (SR leukemia)?
Answer: 0.523 µM

Question: What about the TGI (SR leukemia) of the same compound?
Answer: 1.73 µM

Question: And the GI50 (HOP-92 NSCLC)?
Answer: 1.1 µM

Question: What about the TGI (HOP-92 NSCLC) of the same compound?
Answer: 4.27 µM

Question: What about the GI50 (UACC-257 melanoma) of the same compound?
Answer: 3.27 µM

Question: What about the TGI (UACC-257 melanoma) of the same compound?
Answer: 6.42 µM

Question: What about the GI50 (SF-295 CNS) of the same compound?
Answer: 2.49 µM

Question: And the TGI (SF-295 CNS)?
Answer: 5.29 µM

Question: And the GI50 (T-47D breast)?
Answer: 1.57 µM

Question: What about the TGI (T-47D breast) of the same compound?
Answer: 4.98 µM

Question: What about the GI50 (OVCAR-3 ovarian) of the same compound?
Answer: 0.678 µM

Question: And the TGI (OVCAR-3 ovarian)?
Answer: 2.3 µM

Question: And the GI50 (BT-549 breast)?
Answer: 3.2 µM

Question: And the TGI (BT-549 breast)?
Answer: 6.22 µM

Question: What about the GI50 (HT29 colon) of the same compound?
Answer: 0.426 µM

Question: What about the TGI (HT29 colon) of the same compound?
Answer: 0.867 µM

Question: And the GI50 (SK-MEL-2 melanoma)?
Answer: 3.33 µM

Question: What about the TGI (SK-MEL-2 melanoma) of the same compound?
Answer: 6.33 µM

Question: What about the GI50 (SF-539 CNS) of the same compound?
Answer: 0.788 µM

Question: What about the TGI (SF-539 CNS) of the same compound?
Answer: 2.85 µM

Question: What about the GI50 (NCI-H226 lung) of the same compound?
Answer: 3 µM

Question: What about the TGI (NCI-H226 lung) of the same compound?
Answer: 6.28 µM

Question: And the GI50 (NCI-H460 lung)?
Answer: 0.899 µM

Question: What about the TGI (NCI-H460 lung) of the same compound?
Answer: 3.43 µM

Question: What about the GI50 (SN12C renal) of the same compound?
Answer: 2.95 µM

Question: What about the TGI (SN12C renal) of the same compound?
Answer: 5.72 µM

Question: What about the GI50 (NCI-H23 lung) of the same compound?
Answer: 2.9 µM

Question: And the TGI (NCI-H23 lung)?
Answer: 5.88 µM

Question: What about the GI50 (MCF7 breast) of the same compound?
Answer: 0.418 µM

Question: What about the TGI (MCF7 breast) of the same compound?
Answer: 3.06 µM

Question: And the GI50 (HCC-2998 colon)?
Answer: 2.16 µM

Question: What about the TGI (HCC-2998 colon) of the same compound?
Answer: 4.79 µM

Question: And the GI50 (UO-31 renal)?
Answer: 2.74 µM

Question: What about the TGI (UO-31 renal) of the same compound?
Answer: 5.4 µM

Question: And the GI50 (A549 NSCLC)?
Answer: 2.99 µM

Question: And the TGI (A549 NSCLC)?
Answer: 7.48 µM

Question: What about the GI50 (MOLT-4 leukemia) of the same compound?
Answer: 1.08 µM

Question: And the TGI (MOLT-4 leukemia)?
Answer: 4.05 µM

Question: What about the GI50 (HCT-116 colon) of the same compound?
Answer: 0.795 µM

Question: And the TGI (HCT-116 colon)?
Answer: 3.21 µM

Question: And the GI50 (PC-3 prostate)?
Answer: 2.75 µM

Question: What about the TGI (PC-3 prostate) of the same compound?
Answer: 6.07 µM

Question: And the GI50 (MDA-MB-435)?
Answer: 0.537 µM

Question: What about the TGI (MDA-MB-435) of the same compound?
Answer: 1.83 µM

Question: What about the GI50 (M14 melanoma) of the same compound?
Answer: 0.427 µM

Question: What about the TGI (M14 melanoma) of the same compound?
Answer: 0.93 µM

Question: And the GI50 (RPMI-8226 leukemia)?
Answer: 2.18 µM

Question: And the TGI (RPMI-8226 leukemia)?
Answer: 8.53 µM

Question: And the GI50 (DU-145 prostate)?
Answer: 2.1 µM

Question: What about the TGI (DU-145 prostate) of the same compound?
Answer: 4.6 µM

Question: What about the GI50 (SK-MEL-28 melanoma) of the same compound?
Answer: 2.49 µM

Question: What about the TGI (SK-MEL-28 melanoma) of the same compound?
Answer: 5.07 µM

Question: What about the GI50 (RXF 393 renal) of the same compound?
Answer: 1.09 µM

Question: What about the TGI (RXF 393 renal) of the same compound?
Answer: 3.92 µM

Question: What about the GI50 (KM12 colon) of the same compound?
Answer: 2.6 µM

Question: And the TGI (KM12 colon)?
Answer: 5.5 µM

Question: What about the GI50 (SW-620 colon) of the same compound?
Answer: 0.982 µM

Question: What about the TGI (SW-620 colon) of the same compound?
Answer: 3.62 µM

Question: What about the GI50 (CCRF-CEM leukemia) of the same compound?
Answer: 0.593 µM

Question: What about the TGI (CCRF-CEM leukemia) of the same compound?
Answer: 1.96 µM

Question: And the GI50 (OVCAR-8 ovarian)?
Answer: 3.62 µM

Question: What about the TGI (OVCAR-8 ovarian) of the same compound?
Answer: 7.6 µM

Question: And the GI50 (UACC-62 melanoma)?
Answer: 2.97 µM

Question: What about the TGI (UACC-62 melanoma) of the same compound?
Answer: 5.73 µM

Question: What about the GI50 (HL-60(TB) leukemia) of the same compound?
Answer: 0.735 µM

Question: And the TGI (HL-60(TB) leukemia)?
Answer: 3.03 µM

Question: And the GI50 (NCI-H522 lung)?
Answer: 2.42 µM

Question: What about the TGI (NCI-H522 lung) of the same compound?
Answer: 5.33 µM
